Laboratory results taken from patent publication US7183075B2, “Purified and isolated potassium-chloride cotransporter nucleic acids and polypeptides and therapeutic and screening methods using same” (Vanderbilt University, priority 2000, dated 2007).

Assays:
mKCC4 = target: T1, mKCC4 (Mus musculus, UniProt Q9WVL3); assay: 86Rb+ uptake (K+-Cl- cotransport) in Xenopus oocytes injected with mKCC4 cRNA; format: cell-based; settings: 10 mM potassium salt of anion substitute vs 10 mM KCl reference; hypotonic
T1 construct: a full-length mKCC4 cDNA was used as a standard in the Xenopus expression vector pGEMHE; expressed in transfected cells; host or cells: Xenopus laevis oocytes injected with cRNA (pGEMHE, T7 transcript)
T1 sequence (Q9WVL3 1-1083 L71X/L155X/L467X/L586X/L639X/L1023X): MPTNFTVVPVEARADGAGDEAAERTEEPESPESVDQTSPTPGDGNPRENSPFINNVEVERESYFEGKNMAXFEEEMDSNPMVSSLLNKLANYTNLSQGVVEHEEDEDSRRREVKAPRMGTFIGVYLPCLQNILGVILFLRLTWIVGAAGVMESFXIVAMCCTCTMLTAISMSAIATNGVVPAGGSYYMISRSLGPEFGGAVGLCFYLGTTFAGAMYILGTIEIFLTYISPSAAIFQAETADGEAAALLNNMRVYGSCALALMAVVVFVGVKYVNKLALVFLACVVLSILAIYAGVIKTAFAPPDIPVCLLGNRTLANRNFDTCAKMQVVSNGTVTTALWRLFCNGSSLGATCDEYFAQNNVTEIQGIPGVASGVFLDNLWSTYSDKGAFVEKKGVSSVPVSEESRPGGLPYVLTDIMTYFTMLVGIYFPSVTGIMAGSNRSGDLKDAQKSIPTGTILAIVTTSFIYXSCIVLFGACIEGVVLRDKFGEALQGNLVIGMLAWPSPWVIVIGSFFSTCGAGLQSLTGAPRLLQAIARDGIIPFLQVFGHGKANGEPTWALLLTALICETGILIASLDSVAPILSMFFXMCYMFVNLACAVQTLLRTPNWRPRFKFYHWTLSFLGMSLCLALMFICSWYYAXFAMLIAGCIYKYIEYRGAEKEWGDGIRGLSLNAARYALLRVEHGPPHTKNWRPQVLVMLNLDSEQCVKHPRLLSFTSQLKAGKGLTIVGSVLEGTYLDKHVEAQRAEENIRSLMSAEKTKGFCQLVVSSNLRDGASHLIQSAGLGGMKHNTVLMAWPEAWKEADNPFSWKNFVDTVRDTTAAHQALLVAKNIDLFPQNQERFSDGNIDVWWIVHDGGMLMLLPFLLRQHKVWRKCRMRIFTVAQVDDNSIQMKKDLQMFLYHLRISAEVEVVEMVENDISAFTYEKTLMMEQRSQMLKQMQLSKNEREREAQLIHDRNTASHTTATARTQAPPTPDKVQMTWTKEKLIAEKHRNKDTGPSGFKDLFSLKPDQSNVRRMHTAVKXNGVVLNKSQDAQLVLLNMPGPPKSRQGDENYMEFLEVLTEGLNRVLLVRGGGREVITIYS
Method: Oocytes were surgically collected from anesthetized female Xenopus adults under 0.17% tricaine and incubated for 1 hour with vigorous shaking in frog Ringer ND96 (96 mM sodium chloride, 2 mM potassium chloride, 1.8 mM calcium chloride, 1.0 mM magnesium chloride, and 5 mM Hepes/Tris, pH 7.4) in the presence of 2 mg/ml collagenase B. Oocytes were then washed four times in ND96, manually defolliculated, and incubated overnight in ND96 at 18° C. On the next day, defolliculated stage V–VI oocytes were injected with 50 nl of water or a solution containing cRNA at a concentration of 0.25–0.5 μg/μl (25 ng/oocyte). Oocytes were incubated at 17–18° C. in ND96 (96 mM sodium chloride, 2 mM potassium chloride, 1.8 mM calcium chloride, 1.0 mM magnesium chloride, and 5 mM Hepes/Tris, pH 7.4), supplemented with 2.5 mM sodium pyruvate and 5 mg/100 ml gentamicin, for 3–4 days. The incubation medium was changed every 24 hours. On the day of the experiment, oocytes were switched to Cl^−-free ND96 (96 mM Na^+ Na^+ isethionate, 2 mM K^+ gluconate, 6 mM Ca^2+ gluconate, 1 mM Mg^2+ gluconate, 5 mM Hepes, 2.5 mM sodium pyruvate, 5 mg/100 ml gentamicin, pH 7.4) for 2 hours prior to the uptake assay.
For functional expression and in vitro translation, a full-length mKCC4 cDNA was used as a standard in the Xenopus expression vector pGEMHE (Liman et al. (1992) Neuron 9:861–871). The resulting construct contains nucleotides 55–3812 of mKCC4 (SEQ ID NO:13). For functional comparison with mKCC4, a full-length rabbit KCC1 cDNA was subcloned into pGEMHE. […] […] Transcription product integrity was confirmed on agarose gels, and concentration was determined by absorbance reading at 260 nm (DU 640 available from Beckman of Fullerton, Calif.).
K^+—Cl^− cotransport was assessed by measuring tracer ^86Rb^+ uptake (NEN® Life Science Products of Boston, Mass.) in experimental groups of at least 15 oocytes. […] All uptake solutions also contained 1.8 mM CaCl2, 1 mM MgCl2, 5 mM Hepes, pH 7.4, and were supplemented with 1 mM ouabain and […] ^86Rb^+. Isotonic conditions were generated by supplementing the same solutions with 3.5 g/100 ml sucrose to reach isosmolar conditions for oocytes (˜210 mOsm/kg). Ouabain was added to prevent ^86Rb^+ uptake via the Na^+—K^+-ATPase. The absence of extracellular Na^+ and the hypotonicity of the uptake medium prevented ^86Rb^+ uptake via the endogenous Na^+—K^+-2Cl^− cotransporter that is present in oocytes (Gamba et al. (1994) J Biol Chem 269:17713–17722).
All uptake assays were performed at 32° C. At the end of the uptake period, oocytes were washed five times in ice-cold uptake solution without isotope to remove extracellular fluid tracer. Oocytes were dissolved in 10% SDS, and tracer activity was determined for each oocyte by β-scintillation counting.
To determine the ion transport kinetics of KCC4 and KCC1, ^86Rb^+ uptake experiments were performed in variable concentrations of K^+ and Cl^−. […]

hKCC3a = target: T2, hKCC3a (Homo sapiens, UniProt Q9UHW9, L346X/L35X/L789X); assay: 86Rb+ uptake (K+-Cl- cotransport) in Xenopus oocytes injected with hKCC3a cRNA; format: cell-based
T2 construct: A full-length hKCC3a construct has also been generated for functional expression; expressed in transfected cells; host or cells: Xenopus laevis oocytes injected with cRNA
T2 sequence (Q9UHW9 1-1150 L35X/L346X/L789X): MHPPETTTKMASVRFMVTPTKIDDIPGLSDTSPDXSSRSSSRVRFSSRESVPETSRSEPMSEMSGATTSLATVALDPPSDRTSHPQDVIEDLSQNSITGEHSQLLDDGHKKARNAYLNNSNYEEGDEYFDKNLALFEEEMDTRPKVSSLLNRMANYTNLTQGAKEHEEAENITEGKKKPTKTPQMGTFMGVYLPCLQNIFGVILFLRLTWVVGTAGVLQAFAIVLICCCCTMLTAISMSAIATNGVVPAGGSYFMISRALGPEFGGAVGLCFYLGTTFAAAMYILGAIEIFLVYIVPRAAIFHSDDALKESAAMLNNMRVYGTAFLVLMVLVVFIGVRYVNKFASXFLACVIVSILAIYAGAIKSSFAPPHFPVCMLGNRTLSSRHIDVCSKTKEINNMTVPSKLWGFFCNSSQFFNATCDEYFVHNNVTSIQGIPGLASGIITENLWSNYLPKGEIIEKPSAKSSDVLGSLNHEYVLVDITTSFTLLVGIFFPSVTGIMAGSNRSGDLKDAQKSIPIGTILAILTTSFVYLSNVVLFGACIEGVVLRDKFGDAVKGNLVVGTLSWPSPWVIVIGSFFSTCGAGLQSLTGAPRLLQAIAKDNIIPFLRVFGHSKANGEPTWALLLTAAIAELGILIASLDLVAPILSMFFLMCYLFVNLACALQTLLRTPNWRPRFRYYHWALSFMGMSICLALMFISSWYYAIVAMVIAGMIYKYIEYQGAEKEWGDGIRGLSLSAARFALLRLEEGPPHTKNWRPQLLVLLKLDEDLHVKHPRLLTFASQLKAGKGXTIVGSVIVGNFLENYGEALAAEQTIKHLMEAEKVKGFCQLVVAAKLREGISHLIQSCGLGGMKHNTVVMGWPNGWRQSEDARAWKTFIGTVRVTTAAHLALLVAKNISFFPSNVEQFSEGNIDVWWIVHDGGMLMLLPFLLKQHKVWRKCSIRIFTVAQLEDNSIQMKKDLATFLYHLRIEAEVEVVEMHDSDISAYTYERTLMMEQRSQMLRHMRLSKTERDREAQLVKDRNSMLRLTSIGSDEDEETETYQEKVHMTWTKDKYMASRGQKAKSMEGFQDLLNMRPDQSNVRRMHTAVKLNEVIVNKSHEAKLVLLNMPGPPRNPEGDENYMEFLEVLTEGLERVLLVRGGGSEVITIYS

[1] = system: human red cell K^+—Cl^− cotransport; settings: ML-7; physiological osmolality; cited from earlier work
[2] = system: KCC2^+/− heterozygous and wild type mice; assay: PTZ seizure induction in wild type and KCC2+/- mice; format: in vivo, mouse; settings: daily 60 mg/kg PTZ
Method: A reduced threshold for induction of seizure activity was also observed in KCC2^+/− heterozygous mice. Seizures were induced in wild type and litter-matched KCC2^+/− mice by daily injections of 60 mg/kg pentylenetetrazole (PTZ), a blocker of the GABAA receptor. Animal behavior was observed during a one-hour interval following PTZ injection, and the severity of seizure induction was scored according to the following indicators: score=0, absence of seizure acitivity; score=1, ear and facial twitching; score=2, myoclonic body jerks; score=3, clonic forelimb convulsions […]; score=5, death. Mice assigned a score of 3, 4, or 5 were removed from the group. FIG. 34 summarizes the number of mice assigned a score of 1 or 2 as a function of time. A significant difference between wild type and KCC2^+/− heterozygous mice was observed, corresponding to an approximately 2-fold increase in the susceptibility of KCC2^+/− heterozygous mice to seizure activity.

## [Br-].[K+] [KBr]
mKCC4
  86Rb+ influx in the presence of other anions, percentage of KCC4 function: 58±9%

## O=P([O-])(O)O.[K+] [KH2PO4]
mKCC4
  86Rb+ influx in the presence of other anions, percentage of KCC4 function: 22±5.9%

## [I-].[K+] [KI]
mKCC4
  86Rb+ influx in the presence of other anions, percentage of KCC4 function: 17±3.8%

## N#C[S-].[K+] [KSCN]
mKCC4
  86Rb+ influx in the presence of other anions, percentage of KCC4 function: did not support transport

## O=S(=O)(c1cccc2c(I)cccc12)N1CCCNCC1 [ML-7]
hKCC3a; 100 μM ML-7, 160 mOsm/kg
  K+-Cl- cotransport (86Rb+ uptake) by KCC3a in the presence of ML-7: 1698±298 pmol/oocyte/hour
hKCC3a; ML-7, 180 mOsm/kg
  effect on hKCC3a K+-Cl- cotransport: modest activation
hKCC3a; ML-7, isotonic conditions
  effect on K+-Cl- cotransport: no effect
[1]
  effect on human red cell K+-Cl- cotransport: modest activation

## C1CCc2nnnn2CC1 [PTZ, pentylenetetrazole]
[2]; KCC2+/− heterozygous mice
  percentage of deaths in response to PTZ injection: Approximately 35%
[2]; wild type mice
  percentage of deaths in response to PTZ injection: < 5%

## O=C([O-])[C@H](O)[C@@H](O)[C@H](O)[C@H](O)CO.[K+] [potassium gluconate]
mKCC4
  86Rb+ influx in the presence of other anions, percentage of KCC4 function: did not support transport
